Measurements reported in patent US20240360148A1 (SUVALENT THERAPEUTICS, INC., priority 2021, published 2024).
In brackets after ≈: the same amount, converted by molar mass. Like-named read-outs stand apart in the source and are kept apart here.

What was measured:
Solubility Evaluation = type: physicochemical; conditions: kinetic from dmso stock, 1 hour at RT
Description: The compounds of interest were evaluated for their solubility in various biological solutions. Specifically, aliquots (8 μL) of reference and test compound stock solutions (10 mM) were added into 792 μL of buffer (PBS, pH7.4, FaSSIF, pH 6.5, or FaSSGF, pH 1.6) respectively (Final DMSO conc.: 1%). Sample tubes were shaken for 1 hour (1000 rpm) at RT. The experiment was calibrated using 300 μM spiked solution (SS) in MeOH/CAN (4:1) by adding 6 μL of 10 mM compound stock solution in 194 μL MeOH/ACN(4:1) ranging from 60 μM to 0.02 μM. The samples were centrifuged (10 min-12000 rpm) to precipitate un-dissolved particles. The supernatants were transferred to a new tube or plate. Supernatants were diluted 10 times and 100 times with 100 mM buffer then analyzed by LC-MS/MS. SGF=simulated gastric fluid, SIF=simulated intestinal fluid, PBS=phosphate buffered saline pH 7.4 Values are noted in μM.

SAE1 = SAE1 (Homo sapiens (Human), UniProt Q9UBE0+Q9UBT2); assay: SAE High Throughput Biochemical Assay (HTRF), 15 min preincubation; conditions: read-out: 15 min preincubation HTRF IC50 (μM) Ave, SAE1 12.5 nM, ATP 100 μM
Summary of the method: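 SAE1 (12.5 nM) was preincubated with compound for 15 min at RT in HEPES pH 7.5, 0.1% BSA, 10 mM MgCl2. The reaction was then started with SUMO-GST and UBC9-His (40 nM each) plus 100 μM ATP for 45 min. After KF stop, HTRF (anti-GST-XL665/anti-His-EuK) was read at 2 h and overnight; some compounds were tested singly at 25 micromolar as percent of control.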

[1] = Plasma protein binding, equilibrium dialysis, monkey plasma; type: in vitro ADME; conditions: 5 hours at 37° C., read-out: PPB % bound Monkey (converted)
Description: (§1) The compounds of interest were evaluated for various PK parameters. Specifically CACO permeability/efflux and plasma protein binding (PPP) were determined. Stock solutions were prepared at 10 mM in DMSO for test and reference compounds. Aliquots of the stock solution were diluted to 500× of final concentration (0.5 mM) with DMSO, then further diluted upon the addition of bank PE3-buffer to 20× of final concentration (20 μM). Then test and reference compounds were prepared in plasma at 1 μM. For 0 hour incubation: 25 μL of the plasma spiked with test and reference compounds was transferred into a 96-well sample preparation plate, and then 25 μL blank PB-buffer was added. The samples were quenched by 200 μL of IS solution to prepare [Initial]0h samples. For 5 hours incubation: 100 μL of the plasma spiking with test and reference compounds was loaded on donor side, and 100 μL of blank PB-buffer were loaded on receiver side of the equilibrium dialysis device. Samples were incubated in an air-bath shaker (60 rpm) for 5 hours at 37° C. After 5 hours incubation, 25 μL of samples (from both the donor sides and receiver sides of the dialysis apparatus) was aspirated and added into new sample preparation plates, separately. 25 μL of blank PB-buffer was added to donor side samples and 25 μL of blank plasma was added to receiver side samples to balance the matrix. The samples were quenched with 200 μL of IS solution. The assay plate was shaken at the vibrator (Hangzhou Allsheng, MX100-4A) for 10 min (600 rpm) and then centrifuged at 5,594×g for 15 min (Thermo Multifuge×3R). An aliquot of the 50 μL supernatant was taken from each well and diluted by 50 μL distilled water, then analyzed by UPLC-MS/MS.

Caco-2 cells = assay: Caco-2 permeability/efflux; type: in vitro ADME; conditions: 10 uM, 37° C., 90 min, pH 7.4
Description: (§2) Caco-2 cells were obtained from American Tissue Culture Collection (Rockville, MD). The cells were maintained in Modified Eagle's medium (MEM), containing 10% heat-inactivated fetal bovine serum (FBS), and 1% non-essential amino acids, in CO2 at 37° C. Cells were seeded on polycarbonate filter inserts (Millipore, CAT #PSHT 010 R5). The cells were cultured for 21-28 days prior to the permeability experiments. The Lucifer Yellow permeability was checked before and after the assay. Compounds were dissolved at 10 mM in 100% dimethyl sulfoxide (DMSO) and diluted for studies in Hanks Balanced Salt Solution (HBSS, Invitrogen, Cat #14025-092) with 25 mM HEPES, pH 7.4. Compounds were tested at 10 µM in both the apical-to-basolateral (A-B) and basolateral-to-apical (B-A) directions, incubations were conducted at 37° C. for 90 min. At the end of incubation, samples were diluted by assay buffer, and analyzed by LC-MS/MS. The concentrations of the compounds were quantified by standard curve. The first comparator example (Comp. Ex. 1) is the chloro substituted thienodihydropyridine

[2] = Caco-2 permeability/efflux; type: in vitro ADME; conditions: human, Caco-2, pH 7.4; B-A / A-B
Description: as §2

[3] = Plasma protein binding, equilibrium dialysis, rat plasma; type: in vitro ADME; conditions: 5 hours at 37° C., read-out: PPB % bound Rat (converted)
Description: as §1

[4] = PBS (phosphate buffered saline), aqueous buffer, phosphate buffered saline pH 7.4, 1% DMSO, read-out: Solubilities PBS
[5] = simulated intestinal fluid (FaSSIF, pH 6.5), 1% DMSO, read-out: Solubilities SIF

SAE1, sequence (Q9UBE0 whole entry): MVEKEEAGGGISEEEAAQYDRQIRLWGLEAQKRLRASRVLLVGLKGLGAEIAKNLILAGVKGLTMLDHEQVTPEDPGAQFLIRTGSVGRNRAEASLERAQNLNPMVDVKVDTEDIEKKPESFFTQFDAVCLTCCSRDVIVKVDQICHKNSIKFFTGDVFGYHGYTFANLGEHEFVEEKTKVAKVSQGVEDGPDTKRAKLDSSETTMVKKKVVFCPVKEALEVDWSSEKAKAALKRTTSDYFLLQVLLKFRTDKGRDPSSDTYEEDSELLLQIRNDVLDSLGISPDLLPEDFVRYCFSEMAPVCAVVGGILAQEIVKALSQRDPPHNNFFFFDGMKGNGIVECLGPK
SAE1, sequence (Q9UBT2 whole entry): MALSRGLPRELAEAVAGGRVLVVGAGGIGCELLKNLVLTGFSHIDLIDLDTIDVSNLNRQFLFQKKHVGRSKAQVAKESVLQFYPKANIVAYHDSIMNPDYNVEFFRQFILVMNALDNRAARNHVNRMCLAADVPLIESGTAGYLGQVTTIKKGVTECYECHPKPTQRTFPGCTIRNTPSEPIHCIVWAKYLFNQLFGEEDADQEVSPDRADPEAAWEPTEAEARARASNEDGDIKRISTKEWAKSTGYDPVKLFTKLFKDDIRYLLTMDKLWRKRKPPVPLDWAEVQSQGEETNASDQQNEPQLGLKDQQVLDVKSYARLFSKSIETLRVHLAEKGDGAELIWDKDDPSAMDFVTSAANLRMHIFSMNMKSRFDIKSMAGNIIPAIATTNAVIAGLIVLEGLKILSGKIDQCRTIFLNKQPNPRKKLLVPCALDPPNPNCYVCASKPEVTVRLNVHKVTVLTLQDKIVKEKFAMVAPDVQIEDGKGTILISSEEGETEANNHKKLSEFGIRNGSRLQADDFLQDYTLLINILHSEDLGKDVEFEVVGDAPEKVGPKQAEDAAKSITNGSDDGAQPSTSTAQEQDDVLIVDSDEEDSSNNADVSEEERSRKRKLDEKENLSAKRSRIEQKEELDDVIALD

Row | Structure (SMILES) | solubility at 1 h (Solubility Evaluation; [4]) | solubility at 1 h (Solubility Evaluation; [5]) | IC50 (SAE1) | fraction unbound at 5 h, 1 μM [1] | Caco-2 apparent permeability (Papp) (Caco-2 cells; apical-to-basolateral) | Caco-2 apparent permeability (Papp) (Caco-2 cells; basolateral-to-apical) | efflux ratio at 90 min, 10 μM [2] | fraction unbound at 5 h, 1 μM [3]
1 | C=CC(=O)N1Cc2sc(C#N)c(C)c2[C@H](c2cccc(F)c2-c2cn(CC)nc2C(F)(F)F)C1 [Compound 222] | 41 µM (≈ 20 µg/mL) | 29 µM (≈ 14.2 µg/mL) | 0.1 µM | 0.009 | 3.4 10^-6 cm/s | 4.1 10^-6 cm/s | 1 | 0.004
2 | CCn1cc(-c2c(F)cccc2[C@@H]2CN(C(=O)/C=C/CN(C)C)Cc3sc(C#N)c(C)c32)c(C(F)(F)F)n1 [Example 46, (S, E)-6-(4-(dimethylamino)but-2-enoyl)-4-(2-(1-ethyl-3-(trifluoromethyl)-1 H-pyrazol-4-yl)-3-fluorophenyl)-3-methyl-4,5,6,7-tetrahydrothieno[2,3-c]pyridine-2-carbonitrile] | 97 µM (≈ 52.9 µg/mL) | > 100 µM | 0.2 µM | 0.047 | 12.7 10^-6 cm/s | 11.6 10^-6 cm/s | 1 | 0.021
3 | CCn1cc(-c2c(F)cccc2[C@@H]2CN(C(=O)/C=C/CNC)Cc3sc(C#N)cc32)c(C(F)(F)F)n1 [Example 50] | 30 µM (≈ 15.5 µg/mL) | 28 µM (≈ 14.5 µg/mL) | 0.51 µM | 0.064 | 4 10^-6 cm/s | 21 10^-6 cm/s | 6 | 0.062
